Assays:
[1] = Luminescence activity of nanoKAZ mutants secreted into culture medium from CHO-K1 cells using secretory signal peptide sequence; type: biochemical; details: substrate furimazine, with secretory signal peptide, nanoKAZ with CTZ = 1.0
Procedure: (§1) Chinese hamster ovary cell line CHO-K1 was cultured in Ham's F-12 medium (manufactured by Wako Pure Chemical Industries, Ltd.) supplemented with 10% (v/v) fetal bovine serum (manufactured by Biowest Inc.). The CHO-K1 cells were seeded in a 6-well plate in 2×10^5 cells/well/2 mL medium (n=2) and cultured in an incubator at 37° C. in 5% (v/v) CO2. After 24 hours, the purified recombinant plasmid was transfected to CHO-K1 cells using a FuGene HD transfection kit (manufactured by Promega Corp.) and the cells were provided for subsequent experiment. Specifically, 1 μg of the recombinant plasmid, 0.1 μg of the internal standard vector pGL4.13 [Luc2/sv40] and 3.3 μL of FuGene HD were added to 100 μL of the medium and allowed to stand at room temperature for 15 minutes. […]
Luminescence activity was measured for 60 seconds using a luminometer (manufactured by Atto Inc.: AB2200); the maximum intensity of luminescence (Imax) and the integrated values for 60 seconds within parentheses in terms of relative intensity of luminescence are shown in TABLE 3.
(§2) Luminescence activity of the nanoKAZ mutants secreted into the culture medium from animal cultured cells using the secretory signal peptide sequence was measured by the method described in EXAMPLE 9. […] The nanoKAZ-AQQL mutant is secretable protein and can use coelenterazine as the most efficient substrate for the luminescence reaction.

[2] = Luminescence activity of nanoKAZ mutants in culture medium of CHO-K1 cells without secretory signal peptide sequence; type: biochemical; details: substrate coelenterazine (CTZ), nanoKAZ = 1.0
Procedure: as §1, with “experiment.” for “experiment. Specifically, 1 μg of the recombinant plasmid, 0.1 μg of the internal standard vector pGL4.13 [Luc2/sv40] and 3.3 μL of FuGene HD were added to 100 μL of the medium and allowed to stand at room temperature for 15 minutes.”
(§3) The crude enzyme solution, 5 μl, obtained in EXAMPLE 8 was added to 100 μl of 30 mM Tris-HCl (pH 7.6)-10 mM EDTA (Wako Pure Chemical Industries, Ltd.) containing 1 μg of coelenterazine (manufactured by JNC Corp.), and the luminescence reaction was started. Luminescence activity was measured for 60 seconds using a luminometer (manufactured by Atto Inc.: AB2200); the maximum intensity of luminescence (Imax) and the integrated values for 60 seconds within parentheses in terms of relative intensity of luminescence are shown in TABLE 3.
Luminescence activity of the nanoKAZ mutants in culture medium, which were secreted from animal culture cells without using a secretory signal peptide sequence, was measured by the method described in EXAMPLE 9. […]

[3] = reported in the literature (Patent Document 2, Non-Patent Documents 5 and 6); cited from earlier work
[4] = Luminescence activity of ZZ-fused nanoKAZ mutants expressed in E. coli (soluble fraction); type: biochemical; details: nanoKAZ with CTZ = 1.0
Procedure: The E. coli BL21 strain (manufactured by Novagen) was used as a host cell. The strain was cultured in 10 mL of Luria-Bertani medium containing ampicillin (50 μg/mL) at 37° C. for 18 hours. The seed culture was inoculated to 10 mL of LB medium and incubated for 3 hours, followed by cooling in an ice-water bath for 1 hour. IPTG was added to the culture medium at a final concentration of 0.2 mM, followed by incubation at 15° C. for further 20 hours. The E. coli cells were collected from 1 mL of the culture medium by centrifugation. The collected E. coli cells were suspended in 0.5 mL of 50 mM Tris-HCl (pH 7.6) containing 10 mM EDTA (manufactured by Wako Pure Chemical Industries, Ltd.). The cells were disrupted by sonication for 5 seconds using a Branson Model 250 Sonifire. The cells were subjected to high-speed centrifugation to recover 0.5 mL of the supernatant as a soluble fraction containing the ZZ-fused nanoKAZ mutant. This soluble fraction, 5 μL, was subjected to SDS-PAGE electrophoresis to confirm expression of the proteins. In FIG. 2, numerals 1 to 5 represent as follows: 1: molecular weight size markers; 2: nanoKAZ, 3: nanoKAZ-AQQL, 4: nanoKAZ-KVA, 5: nanoKAZ-FLM. The results in FIG. 2 reveal that each mutated nanoKAZ protein was expressed in E. coli as soluble proteins at the same expression level as in nanoKAZ.
After 5 μL of the soluble fraction solution obtained in EXAMPLE 3 was added to 100 μL of 50 mM Tris-HCl (pH 7.6)-10 mM EDTA containing 1 μg of coelenterazine (manufactured by JNC Corp.) or its analogue, a luminescence reaction was started. Luminescence activity was measured for 60 seconds using a luminometer (manufactured by Atto Inc.: AB2200). The relative maximum intensity of luminescence (Imax) and the integrated values for 60 seconds within parentheses in terms of relative intensity of luminescence are shown in TABLE 2.
The coelenterazine analogues used for substrate specificity studies were synthesized by the methods described in publications, respectively. Specifically, bis-coelenterazine was synthesized by the method described in Nakamura et al. (1997) Tetrahedron Lett. 38: 6405-6406, furimazine by the method described in Hall et al. (2012) ACS Chem. Biol. […], h-coelenterazine by the method described in Inouye et al (2010) Anal. Biochem. 407:247-252 and 6h-coelenterazine and 6h-f-coelenterazine by the method described in Inouye et al (2013) Biochem. Biophys. Res. Commun. 437: 23-28. f-coelenterazine was purchased from Prolume Ltd. Luminescence activity of the ZZ-fused nanoKAZ mutants was measured by the method described in EXAMPLE 4.

[5] = Luminescence activity of nanoKAZ mutants secreted into culture medium from CHO-K1 cells using secretory signal peptide sequence; type: biochemical; details: nanoKAZ with CTZ = 1.0
Procedure: Chinese hamster ovary cell line CHO-K1 was cultured in Ham's F-12 medium (manufactured by Wako Pure Chemical Industries, Ltd.) supplemented with 10% (v/v) fetal bovine serum (manufactured by Biowest Inc.). The CHO-K1 cells were seeded in a 6-well plate in 2×10^5 cells/well/2 mL medium (n=2) and cultured in an incubator at 37° C. in 5% (v/v) CO2. After 24 hours, the purified recombinant plasmid was transfected to CHO-K1 cells using a FuGene HD transfection kit (manufactured by Promega Corp.) and the cells were provided for subsequent experiment. Specifically, 1 μg of the recombinant plasmid, 0.1 μg of the internal standard vector pGL4.13 [Luc2/sv40] and 3.3 μL of FuGene HD were added to 100 μL of the medium and allowed to stand at room temperature for 15 minutes. Subsequently, 100 μL of the DNA-FuGene complex solution was added to the cells in the 6-well plate. After incubation for 46 hours, the culture medium was collected.
as §3, §2

[6] = substrate 6h-coelenterazine, with secretory signal peptide
[7] = substrate 6h-f-coelenterazine, with secretory signal peptide
[8] = substrate bis-coelenterazine, with secretory signal peptide
[9] = substrate coelenterazine (CTZ), with Gaussia luciferase secretory signal peptide
[10] = substrate f-coelenterazine, with secretory signal peptide
[11] = substrate h-coelenterazine, with secretory signal peptide

nanoKAZ: known mutated 19 kDa catalytic protein of Oplophorus luciferase with 16 amino acid mutations; amino acid sequence SEQ ID NO: 2
Relative maximum intensity of luminescence Imax [1]: 5.9 | integrated values of relative intensity of luminescence for 1 min [1]: (6.2) | Relative maximum intensity of luminescence Imax [2]: 1.0 (1.0) | integrated values of relative intensity of luminescence for 1 min [2]: 1.0 (1.0) | luminescence activity, fold higher than that of native 19 kDa protein [3]: approximately 10 fold | Relative maximum intensity of luminescence Imax ([4]; substrate 6h-coelenterazine): 0.6 | integrated values of relative intensity of luminescence for 1 min ([4]; substrate 6h-coelenterazine): (0.4) | Relative maximum intensity of luminescence Imax ([4]; substrate 6h-f-coelenterazine): 7.9 | integrated values of relative intensity of luminescence for 1 min ([4]; substrate 6h-f-coelenterazine): (4.6) | Relative maximum intensity of luminescence Imax ([4]; substrate bis-coelenterazine): 9.0 | integrated values of relative intensity of luminescence for 1 min ([4]; substrate bis-coelenterazine): (6.3) | Relative maximum intensity of luminescence Imax ([4]; substrate coelenterazine (CTZ)): 1.0 | integrated values of relative intensity of luminescence for 1 min ([4]; substrate coelenterazine (CTZ)): (1.0) | Relative maximum intensity of luminescence Imax ([4]; substrate f-coelenterazine): 20.2 | integrated values of relative intensity of luminescence for 1 min ([4]; substrate f-coelenterazine): (10.0) | Relative maximum intensity of luminescence Imax ([4]; substrate furimazine): 4.8 | integrated values of relative intensity of luminescence for 1 min ([4]; substrate furimazine): (3.7) | Relative maximum intensity of luminescence Imax ([4]; substrate h-coelenterazine): 14.2 | integrated values of relative intensity of luminescence for 1 min ([4]; substrate h-coelenterazine): (7.4) | Relative maximum intensity of luminescence Imax [5, 6]: 0.8 | integrated values of relative intensity of luminescence for 1 min [5, 6]: (0.7) | Relative maximum intensity of luminescence Imax [5, 7]: 11.7 | integrated values of relative intensity of luminescence for 1 min [5, 7]: (11.8) | Relative maximum intensity of luminescence Imax [5, 8]: 11.1 | integrated values of relative intensity of luminescence for 1 min [5, 8]: (11.1) | Relative maximum intensity of luminescence Imax [5, 9]: 1.0 | integrated values of relative intensity of luminescence for 1 min [5, 9]: (1.0) | Relative maximum intensity of luminescence Imax [5, 10]: 21.6 | integrated values of relative intensity of luminescence for 1 min [5, 10]: (12.2) | Relative maximum intensity of luminescence Imax [5, 11]: 16.4 | integrated values of relative intensity of luminescence for 1 min [5, 11]: (9.9)

Source: patent publication US10988741B2, “Mutated genes for the catalytic protein of Oplophorus luciferase and use thereof” (JNC CORPORATION, priority 2014, dated 2021)
